Test results published in patent US10829427B2, “Naphthoquinones, pro-drugs, and methods of use thereof” (The Board of Regents of the University of Texas System, priority 2015, dated 2020).
Where two headings read alike, the source gives them in different places. Values belong to the molecule of their own block, whether it stands above or below them.

Experiments:
Mia PaCa-2 cells = assay: ATP assay (ATP depletion / cell viability) in Mia PaCa-2 cells; assay type: cell-based, human; details: for IC50: read-out: Inhibition of cell viability of ATP assay IC50; for IC50/IC50 (β-lapachone/Compoud): Relative activity compare with β-lapachone in ATP depletion of Mia PaCa-2 cells
Description: (§1) In vitro anti-cancer activity of the compound were performed using ATP Assay Kit (Abcam, ab83355) to initially screen, and further performed using 7-day DNA assay.
(§2) Cell culture: endogenous NQO1 overexpressing human MIA PaCa-2 pancreactic and A549 NSCLC cancer cells were obtained (Bey, et al., 2007; Li, et al., 2011). Cancer cells were grown in DMEM with 5% FBS and Mycoplasma free, and cultured at 37° C. in a 5% CO2 95% air humidified atmosphere.
ATP assay: Cells were seeded into each well of a 96-well plate (15000 cells/well) 18 hours ahead of experiment. After aspiration of the media from each well, 100 μl drug-contained media was added instead, and further incubated for 2 hours. After incubation, 100 μl ATP assay kit mixture was added into every well. Following further shaking for 10 minutes with light proof, the data were collected by reading luminescence integrate 1 second per well.

MiaPaca 2 = assay: Relative survival DNA assay, MiaPaca 2, with or without dicoumarol; assay type: cell-based, human; details: for IC50: read-out: Inhibition of cell survival of DNA assay IC50; for DNA amount in survival assay relative to β-lapachone: MiaPaca 2, FIGS. 4A-4C
Description: (§3) Cell Lines and Culture. Endogenous NQO1 overexpressing human MiaPaca-2 (pancreatic carcinoma), A549 (None-small cell lung carcinoma), and MCF-7 (breast adenocarcinoma) were obtained (Bey, et al., 2007; Li, et al., 2011). All cell lines were grown in DMEM (Life Technologies) containing 5%-10% FBS (Fisher Scientific) in a 5% CO2 and 95% air incubator at 37° C.
(§4) Relative Survival Assays. Relative survival was assessed by DNA content and colony forming assays as described (Dong, et al., 2010). Briefly, for DNA content, cells were seeded at 1×10^4 per well in 48-well plates and allowed to attach overnight. Cells were then mock treated or treated with various doses of naphthaquinones (for 2 hours) in the presence or absence of dicoumarol as indicated. Drug-free medium was then added and cells were allowed to grow for 5 to 7 days until control cells reached ˜100% confluence. DNA content was then determined by Hoechst 33258 staining and fluorescence detection using a plate reader (Perkin-Elmer).

A549 = assay: Relative survival DNA assay, A549, with or without dicoumarol; assay type: cell-based, human; details: for IC50: read-out: Inhibition of cell survival of DNA assay IC50; for DNA amount in survival assay relative to β-lapachone: A549, FIGS. 4G-4I
Description: as §3, §4

MCF-7 = assay: Relative survival DNA assay, MCF-7, with or without dicoumarol; assay type: cell-based, human; details: for IC50: read-out: Inhibition of cell survival of DNA assay IC50; for DNA amount in survival assay relative to β-lapachone: MCF-7, FIGS. 4D-4F
Description: as §3, §4

H596 = assay: Relative survival DNA assay, H596 (low NQO1 expression); assay type: cell-based; details: for IC50: H596 (low NQO1 expression), Vehicle, read-out: Inhibition of cell survival of DNA assay IC50
Description: as §4

orthotopic A549 model = assay: In vivo anti-tumor efficacy, NOD-SCID mice bearing orthotopic A549 model; details: for Survival relative to vehicle: orthotopic A549, FIG. 7C
Description: Formulation. β-lap-HPβCD formulation was prepared according to our previous report.^14 NQ-059 and HPβCD (1:45, w/w) were dissolved in EtOH, and then concentrated in vacuo to form a thin film or a sponge-like film. PBS was added, and a clear solution was formed with shaking. Immediately filtration through a Ø 0.45 µm filter (Whatman), a stable solution was afforded, whose concentration was quantified by UV-vis at 256 nm.
(§5) Survival and Antitumor Efficacies. 6- to 8-week-old NOD-SCID female mice were tail-vein administrated with luciferase gene-transfected A549 cells (1.0×106), and randomized into groups (n=7-13/group), monitored for tumor formation in the lungs using bioluminescence (BLI) following treatment with vehicle, β-lap-HPβCD, or NQ-059-HPβCD. An average of 1.0×10^7 total photons was used before any therapies were given as described (Huang, et al., 2012). Animals were treated with vehicle, β-lap-HPβCD (20 mg/kg), or NQ-059-HPβCD (15 and 12 mg/kg) via tail vein and repeated five times every 3 days. Tumor-bearing mice were imaged using BLI to estimate relative tumor volumes as described (Ma, et al., 2015) using D-luciferin (Promega, 2.5 mg, subcutaneously injected). Relative tumor volume estimates were derived from BLI images of mice captured using a Xenogen Vivovision IVIS Lumina Imager (60 s exposure time). Animals were monitored daily for survival and morbidity. Mortality was recorded over times as a result of cancer-related deaths or drug-related toxicities (≥20% body weight loss relative to the start of therapy). Athymic Nu/Nu nude female mice (18-20 grams) were commercially obtained (Harlan). Human xenografts were generated by injecting 2×10^6 MiaPaca-2 cells subcutaneously in PBS/Matrigel into 6-week-old mice. Tumors were measured at indicated times with digital calipers (Fisher Scientific), and tumor volumes calculated (length×width^2×0.5). Treatments were initiated when subcutaneous tumors reached an average size of >100 mm (Cao, et al., 2003).

[1] = test system: subcutaneous MiaPaca-2 model; assay: In vivo anti-tumor efficacy, nude mice bearing subcutaneous MiaPaca-2 model; design: species or system Athymic Nu/Nu nude female mice; details: subcutaneous MiaPaca-2 tumor model, FIG. 8
Description: as §5, with “Human xenografts were generated by injecting 2×10^6 MiaPaca-2 cells subcutaneously in PBS/Matrigel into 6-week-old mice.” left out, “Treatments were initiated when subcutaneous tumors reached an average size of >100 mm (Cao, et al., 2003).” left out

A549 cells = assay: Cell viability in A549 cells (7-day DNA assay); assay type: cell-based, human; details: relative to β-lapachone
Description: as §1, §2
DNA assay: Cells were seeded into each well of a 48-well plate (10000 cells/well) 24 hours ahead of experiment. After aspiration of the media from each well, 500 μl drug-contained media was added instead, and further incubated for 2 hours. Drugs were then removed, control growth medium was added, and cells were allowed to grow for an additional 7 days. Drugs were added to medium at a 1:1000 dilution immediately before administration to cells. DNA content (a measure of cell growth) was determined by fluoresence of the DNA dye Hoescht 33258 (Sigma), and read in a Cytofluor fluoresence plate reader. Data were expressed as relative growth with 6 repetitions.

blood = assay: Hemolysis assay; details: formulated with cyclodextran 1:30; relative to a blank cyclodextran or a DMSO vehicle, FIG. 9
Source text: Hemolysis assay. Hemolysis was quantified and modified according to method previously described (Blanco, et al., 2010). Briefly, after treatment with the blood, the plasma was separated and tested with UV-Vis at 576 nm, and hemolysis was quantified comparing treatment group and control group.

red blood cells = assay: Methemoglobinemia assay; details: formulated with cyclodextran 1:30; relative to a blank cyclodextran or a DMSO vehicle, FIG. 10
Description: Methemoglobinemia assay. Collected red blood cells were suspended in 96 well plates or single wells, then were treated with drug for certain time at 37° C. Immediately after the treatment completed, the cells were sit in ice-bath and lysed with 5% Triton X-100. The clear solution afforded were tested with UV-vis at 630 nm, and then were treated with […] K3FeCN6 for 1 min. The yellow solution afforded was tested again at 630 nm.

Compound: CC1(C)CCC2=C(O1)c1ccccc1C(=O)C2=O [β-lapachone, reference compound]
IC50 (Mia PaCa-2 cells; MiaPac-2, Vehicle): 2.79 µM
IC50 (MiaPaca 2; MiaPaca 2, Dic (dicoumarol, NQO1 inhibitor)): > 10 µM
IC50 (MiaPaca 2; MiaPaca 2, Vehicle): 4.33 µM
IC50 (A549; A549, Dic (dicoumarol, NQO1 inhibitor)): > 10 µM
IC50 (A549; A549, Vehicle): 4.94 µM
IC50 (MCF-7; MCF-7, Dic (dicoumarol, NQO1 inhibitor)): 9.02 µM
IC50 (MCF-7; MCF-7, Vehicle): 2.1 µM
IC50 (H596): > 10 µM
Tumor growth via bioluminescence imaging (orthotopic A549 model; after 74 days, β-lap-HPβCD 20 mg/kg): some tumor growth
Tumor growth via bioluminescence imaging (orthotopic A549 model; after day 44, β-lap-HPβCD 20 mg/kg): some minor tumor growth
Survival relative to vehicle (orthotopic A549 model): small improvement over vehicle
Tumor volume relative to the vehicle [1]: did not

Compound: CC(C)OC1=CC(=O)C(=O)c2cc(Cl)ccc21 [Compound 4, 7-chloro-4-isopropoxynaphthalene-1,2-dione]
IC50/IC50 (β-lapachone/Compoud) (Mia PaCa-2 cells): 1~2
IC50/IC50 (β-lapachone/Compoud) (A549 cells): 1~2

IC50/IC50 (β-lapachone/Compoud) (Mia PaCa-2 cells): 1~2
IC50/IC50 (β-lapachone/Compoud) (A549 cells): 1~2
Compound: CC(C)OC1=CC(=O)C(=O)c2c(O)cccc21 [Compound 38, 8-hydroxy-4-isopropoxynaphthalene-1,2-dione]

IC50/IC50 (β-lapachone/Compoud) (Mia PaCa-2 cells): 1~2
IC50/IC50 (β-lapachone/Compoud) (A549 cells): 0.3~1
Compound: CC(C)OC1=CC(=O)C(=O)c2cc(Cl)c(Cl)cc21 [Compound 37, 6,7-dichloro-4-isopropoxynaphthalene-1,2-dione]

IC50/IC50 (β-lapachone/Compoud) (Mia PaCa-2 cells): 0.3~1
IC50/IC50 (β-lapachone/Compoud) (A549 cells): 0.3~1
Compound: COCCOCCOC1=CC(=O)C(=O)c2c(NC(C)=O)cccc21 [Compound 49, N-(5-(2-(2-methoxyethoxy)ethoxy)-7,8-dioxo-7,8-dihydronaphthalen-1-yl)acetamide]

IC50/IC50 (β-lapachone/Compoud) (Mia PaCa-2 cells): >3
IC50/IC50 (β-lapachone/Compoud) (A549 cells): >3
Compound: COCCOCCOCCOCCOC1=CC(=O)C(=O)c2c(NC(C)=O)cccc21 [Compound 48, N-(5-(2,5,8,11-tetraoxatridecan-13-yloxy)-7,8-dioxo-7,8-dihydronaphthalen-1-yl)acetamide]

Compound: CC(=O)Nc1cccc2c1C(=O)C(=O)C=C2OC(C)C [Compound 24, N-(5-isopropoxy-7,8-dioxo-7,8-dihydronaphthalen-1-yl)acetamide]
Fold (IC50 β-lap/IC50 NQ-059) (Mia PaCa-2 cells; ATP assay, MiaPac-2, Vehicle): 2.9
IC50 (Mia PaCa-2 cells; Homo sapiens, MIA PaCa-2, MiaPac-2, Vehicle): 0.97 µM
IC50/IC50 (β-lapachone/Compoud) (Mia PaCa-2 cells): >3
IC50/IC50 (β-lapachone/Compoud) (A549 cells): >3
Fold (IC50 β-lap/IC50 NQ-059) (MiaPaca 2; DNA assay, MiaPaca 2, Vehicle): 4.9
IC50 (MiaPaca 2; Homo sapiens, MIA PaCa-2, MiaPaca 2, Dic (dicoumarol, NQO1 inhibitor)): > 10 µM
IC50 (MiaPaca 2; Homo sapiens, MIA PaCa-2, MiaPaca 2, Vehicle): 0.88 µM
Activity relative to β-lapachone on the same plate (MiaPaca 2; MiaPac2, FIG. 5A): increased activity
DNA amount in survival assay relative to β-lapachone (MiaPaca 2): decreased DNA amounts at lower concentrations relative to β-lapachone
Activity relative to β-lapachone on the same plate (A549; A549, FIG. 5B): increased activity
DNA amount in survival assay relative to β-lapachone (A549): decreased DNA amounts at lower concentrations relative to β-lapachone
Fold (IC50 β-lap/IC50 NQ-059) (A549; DNA assay, A549, Vehicle): 3.9
IC50 (A549; Homo sapiens, A549, A549, Dic (dicoumarol, NQO1 inhibitor)): > 10 µM
IC50 (A549; Homo sapiens, A549, A549, Vehicle): 1.25 µM
Fold (IC50 β-lap/IC50 NQ-059) (MCF-7; DNA assay, MCF-7, Vehicle): 2.2
IC50 (MCF-7; Homo sapiens, MCF7, MCF-7, Dic (dicoumarol, NQO1 inhibitor)): > 10 µM
IC50 (MCF-7; Homo sapiens, MCF7, MCF-7, Vehicle): 0.95 µM
DNA amount in survival assay relative to β-lapachone (MCF-7): decreased DNA amounts at lower concentrations relative to β-lapachone
DNA amount in survival assay (H596; H596, FIG. 4J): lowest amount of DNA at the lowest concentration
IC50 (H596; Homo sapiens, NCI-H596): > 10 µM
Tumor growth via bioluminescence imaging (orthotopic A549 model; after 74 days, 12 mg/kg): some growth
Tumor growth via bioluminescence imaging (orthotopic A549 model; after day 44, 12 mg/kg): Neither 12 mg/kg or 15 mg/kg NQ-059 showed any tumor growth
Tumor growth via bioluminescence imaging (orthotopic A549 model; after day 44, 15 mg/kg): Neither 12 mg/kg or 15 mg/kg NQ-059 showed any tumor growth
Tumor volume relative to vehicle (orthotopic A549 model; orthotopic A549, FIG. 7B): significantly improved over the vehicle
Survival relative to vehicle (orthotopic A549 model): significantly improved over the vehicle
Tumor volume relative to the vehicle [1]: statistically significant improvement
Hemolysis (blood): reduced toxicity
Methemoglobinemia (red blood cells): reduced toxicity

IC50/IC50 (β-lapachone/Compoud) (Mia PaCa-2 cells): 1~2
IC50/IC50 (β-lapachone/Compoud) (A549 cells): 1~2
Compound: CCCCCCOC1=CC(=O)C(=O)c2c(NC(C)=O)cccc21 [Compound 28, N-(5-(hexyloxy)-7,8-dioxo-7,8-dihydronaphthalen-1-yl)acetamide]

IC50/IC50 (β-lapachone/Compoud) (Mia PaCa-2 cells): >3
IC50/IC50 (β-lapachone/Compoud) (A549 cells): >3
Compound: CC(C)OC1=CC(=O)C(=O)c2c(NS(C)(=O)=O)cccc21 [Compound 21, N-(5-isopropoxy-7,8-dioxo-7,8-dihydronaphthalen-1-yl)methanesulfonamide]
DNA amount in survival assay relative to β-lapachone (MiaPaca 2): decreased DNA amounts at lower concentrations relative to β-lapachone
DNA amount in survival assay relative to β-lapachone (A549): decreased DNA amounts at lower concentrations relative to β-lapachone
DNA amount in survival assay relative to β-lapachone (MCF-7): decreased DNA amounts at lower concentrations relative to β-lapachone
